The test concerns the target Kv1.3 potassium channel (Homo sapiens, UniProt P22001). Briefly: Whole-cell patch-clamp assay for inhibitory activity against Kv1.3 (peak current). Format: cell-based. The following applies: HEK293 cells stably expressing Kv1.3, patch-clamp. In outline:
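Whole-cell currents evoked by a step from −80 mV holding to +40 mV for 500 ms at room temperature. Concentrations perfused cumulatively, low to high, each for 5 min or until steady state. Peak current normalised to each cell's compound-free control; IC50 from nonlinear fit, ≥3 cells per concentration.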
On the technique in general: Patch clamp records ionic current or voltage across a cell membrane.
Kv1.3 potassium channel, sequence (P22001 whole entry, the tested form may be a part): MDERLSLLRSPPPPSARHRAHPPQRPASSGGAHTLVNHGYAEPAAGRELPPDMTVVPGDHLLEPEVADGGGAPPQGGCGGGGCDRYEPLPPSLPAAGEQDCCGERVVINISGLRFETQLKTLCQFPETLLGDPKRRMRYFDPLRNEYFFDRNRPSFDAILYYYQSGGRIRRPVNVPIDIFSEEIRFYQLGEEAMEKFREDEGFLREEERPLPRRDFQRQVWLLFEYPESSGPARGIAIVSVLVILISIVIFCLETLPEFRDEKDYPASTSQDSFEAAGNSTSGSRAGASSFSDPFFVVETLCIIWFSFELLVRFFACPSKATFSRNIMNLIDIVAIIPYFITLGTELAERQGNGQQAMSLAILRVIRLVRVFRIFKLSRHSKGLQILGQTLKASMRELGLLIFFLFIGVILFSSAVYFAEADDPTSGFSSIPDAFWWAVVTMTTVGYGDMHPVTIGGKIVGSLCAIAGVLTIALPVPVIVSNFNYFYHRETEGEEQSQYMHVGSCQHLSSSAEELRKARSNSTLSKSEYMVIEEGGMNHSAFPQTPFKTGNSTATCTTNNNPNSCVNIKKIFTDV
For orientation: IC50 means the concentration that inhibits the measured activity by half. Low readings indicate inhibition by little substance, high ones a need for much substance. Turning to `CC(C)N1CCN(c2cnc3n2CC(c2c(O)ccc(Cl)c2Cl)C3)CC1` (centres unmarked) [Example 100, 3,4-Dichloro-2-(3-(4-isopropylpiperazin-1-yl)-6,7-dihydro-5H-pyrrolo[1,2-a]imidazol-6-yl)phenol], it took 9.89 nM to reach half-maximal inhibition (IC50). This lies in the single-digit nanomolar range. `Oc1ccc(Cl)c(Cl)c1C1Cc2nnc(N3CCOCC3)n2C1` (centres unmarked) [Example 101, 3,4-Dichloro-2-(3-morpholino-6,7-dihydro-5H-pyrrolo[2,1-c][1,2,4]triazol-6-yl)phenol] gave an IC50 of 9.8 nM. In the case of `CC(C)N1CCC(Oc2nnc3n2CC(c2c(O)ccc(Cl)c2Cl)C3)CC1` (centres unmarked) [Example 102, 3,4-dichloro-2-(3-((1-isopropylpiperidin-4-yl)oxy)-6,7-dihydro-5H-pyrrolo[2,1-c][1,2,4]triazol-6-yl)phenol] it was 6.99 nM. The compound `CC(C)N1CCC(n2nc3n(c2=O)C[C@H](c2c(O)ccc(Cl)c2Cl)C3)CC1` [Example 103, (S)-6-(2,3-dichloro-6-hydroxyphenyl)-2-(1-isopropylpiperidin-4-yl)-2,5,6,7-tetrahydro-3H-pyrrolo[2,1-c][1,2,4]triazol-3-one] had an IC50 of 7.68 nM. In the case of `CC(C)N1CCC(n2nc3n(c2=O)C[C@@H](c2c(O)ccc(Cl)c2Cl)C3)CC1` [Example 104, (R)-6-(2,3-dichloro-6-hydroxyphenyl)-2-(1-isopropylpiperidin-4-yl)-2,5,6,7-tetrahydro-3H-pyrrolo[2,1-c][1,2,4]triazol-3-one] it was 6.93 nM; in that of `O=c1n(C2CCNCC2)nc2n1CC(c1c(O)ccc(Cl)c1Cl)C2` (centres unmarked) [Example 105, 6-(2,3-Dichloro-6-hydroxyphenyl)-2-(piperidin-4-yl)-2,5,6,7-tetrahydro-3H-pyrrolo[2,1-c][1,2,4]triazol-3-one], 5.93 nM. In turn, `CCn1nc2n(c1=O)C[C@H](c1c(O)ccc(Cl)c1Cl)C2` [Example 106, (S)-6-(2,3-Dichloro-6-hydroxyphenyl)-2-ethyl-2,5,6,7-tetrahydro-3H-pyrrolo[2,1-c][1,2,4]triazol-3-one] registered a 50% inhibitory concentration (IC50) of 29.8 nM. In turn, `O=c1n(CC(F)F)nc2n1C[C@H](c1c(O)ccc(Cl)c1Cl)C2` [Example 107, (S)-6-(2,3-Dichloro-6-hydroxyphenyl)-2-(2,2-difluoroethyl)-2,5,6,7-tetrahydro-3H-pyrrolo[2,1-c][1,2,4]triazol-3-one] yielded a half-inhibitory concentration (IC50) of 31 nM.

`O=c1n(C2CCOCC2)nc2n1C[C@H](c1c(O)ccc(Cl)c1Cl)C2` [Example 108, (S)-6-(2,3-Dichloro-6-hydroxyphenyl)-2-(tetrahydro-2H-pyran-4-yl)-2,5,6,7-tetrahydro-3H-pyrrolo[2,1-c][1,2,4]triazol-3-one]: the IC50 was 27.8 nM. In the case of `O=c1n([C@H]2CCOC2)nc2n1C[C@H](c1c(O)ccc(Cl)c1Cl)C2` [Example 109, (S)-6-(2,3-Dichloro-6-hydroxyphenyl)-2-((S)-tetrahydrofuran-3-yl)-2,5,6,7-tetrahydro-3H-pyrrolo[2,1-c][1,2,4]triazol-3-one] it was 31.7 nM; in that of `O=c1n([C@@H]2CCOC2)nc2n1C[C@H](c1c(O)ccc(Cl)c1Cl)C2` [Example 110, (S)-6-(2,3-dichloro-6-hydroxyphenyl)-2-((R)-tetrahydrofuran-3-yl)-2,5,6,7-tetrahydro-3H-pyrrolo[2,1-c][1,2,4]triazol-3-one], 20.1 nM; in that of `Oc1ccc(Cl)c(Cl)c1[C@@H]1Cc2nnc(-c3ccnc(C(F)(F)F)c3)n2C1` [Example 111, (S)-3,4-Dichloro-2-(3-(2-(trifluoromethyl)pyridin-4-yl)-6,7-dihydro-5H-pyrrolo[2,1-c][1,2,4]triazol-6-yl)phenol], 14.4 nM.

As to `CCn1cc2c(n1)CC(c1c(O)ccc(Cl)c1Cl)C2` (centres unmarked) [Example 112, 3,4-Dichloro-2-(2-ethyl-2,4,5,6-tetrahydrocyclopenta[c]pyrazol-5-yl)phenol], the concentration for half-maximal inhibition (IC50) turned out to be 43.1 nM.

In turn, `CCc1c2c(nn1C)CC(c1c(O)ccc(Cl)c1Cl)C2` (centres unmarked) [Example 113, 3,4-Dichloro-2-(3-ethyl-2-methyl-2,4,5,6-tetrahydrocyclopenta[c]pyrazol-5-yl)phenol] gave an IC50 of 57.9 nM. This IC50 and that of the compound before are within 1.5-fold of each other. Turning to `CCc1nn(C)c2c1C[C@H](c1c(O)ccc(Cl)c1Cl)C2` [Example 115, (S)-3,4-Dichloro-2-(3-ethyl-1-methyl-1,4,5,6-tetrahydrocyclopenta[c]pyrazol-5-yl)phenol], the 50% inhibitory concentration (IC50) stood at 58.8 nM. `CCc1nn(C)c2c1C[C@@H](c1c(O)ccc(Cl)c1Cl)C2` [Example 116, (R)-3,4-dichloro-2-(3-ethyl-1-methyl-1,4,5,6-tetrahydrocyclopenta[c]pyrazol-5-yl)phenol] registered a 50% inhibitory concentration (IC50) of 44.1 nM. Next, `CCn1ncc2c1C[C@@H](c1c(O)ccc(Cl)c1Cl)C2` [Example 117, (S)-3,4-dichloro-2-(1-ethyl-1,4,5,6-tetrahydrocyclopenta[c]pyrazol-5-yl)phenol]: 65 nM; `Oc1ccc(Br)c(Br)c1C1Cc2nnc([C@@H]3CCOC3)n2C1` (stereo partly drawn) [Example 119, 3,4-Dibromo-2-(3-((S)-tetrahydrofuran-3-yl)-6,7-dihydro-5H-pyrrolo[2,1-c][1,2,4]triazol-6-yl)phenol]: 6.54 nM; `Oc1ccc(Br)c(Cl)c1C1Cc2nnc([C@@H]3CCOC3)n2C1` (stereo partly drawn) [Example 120, (S)-4-Bromo-3-chloro-2-(3-(tetrahydrofuran-3-yl)-6,7-dihydro-5H-pyrrolo[2,1-c][1,2,4]triazol-6-yl)phenol]: 20.2 nM.

Regarding `CC(C)N1CCN(C(=O)c2cnc3n2C[C@H](c2c(O)ccc(Cl)c2Cl)C3)CC1` [Example 121, (S)-(6-(2,3-Dichloro-6-hydroxyphenyl)-6,7-dihydro-5H-pyrrolo[1,2-a]imidazol-3-yl)(4-isopropylpiperazin-1-yl)methanone], the half-maximal inhibitory concentration (IC50) came to 9.68 nM.

For the origin of these results see patent publication US20260224536A1, “ARYL HETEROCYCLIC KV1.3 INHIBITOR, PREPARATION METHOD THEREFOR, AND USE THEREOF” (SHANGHAI SHENSHI WISE TECHNOLOGY CO., LTD., priority 2022, published 2026).
